Read-outs that look alike come from different tables or passages of the source.
Assays:
Phytophthora infestans [1] = type: cell-based; conditions: PI, 48 hours
Cladosporium cucumerinum = assay: Mycelial growth test; type: cell-based; conditions: Cladosporium cucumerinum, CC, read-out: Percent Fungus Growth Inhibition; for inhibition at 5 ppm / inhibition at 10 ppm / inhibition at 40 ppm: 72 h; for inhibition at 20 ppm: CC20, 72 h
Text: |CC = Cladosporium cucumerinum

Phytophthora infestans [2] = assay: whole plant or invertebrate; type: in vivo; conditions: Phytophthora infestans, in Solanum lycopersicum, foliar, read-out: Percent Disease Control, foliar, tomato late blight, 150 ppm, protective

Structure (SMILES) | Spore Germination Rating (Phytophthora infestans [1]; 1.0 ppm) | Spore Germination Rating (Phytophthora infestans [1]; 2.5 ppm) | Spore Germination Rating (Phytophthora infestans [1]; 10 ppm) | Spore Germination Rating (Phytophthora infestans [1]; 40 ppm) | inhibition at 5 ppm (Cladosporium cucumerinum) [%] | inhibition at 10 ppm (Cladosporium cucumerinum) [%] | inhibition at 40 ppm (Cladosporium cucumerinum) [%] | inhibition at 20 ppm (Cladosporium cucumerinum) [%] | pest or weed control at 150 ppm (Phytophthora infestans [2]) [%]
CC(=O)c1ccc(Oc2nsnc(Cl)c2=O)cc1 [Compound 47, 3-(4-acetylphenoxy)-5-chloro-4H--1,2,6-thiadiazin-4-one] | 0 (0-10) | 0 (0-10) | 0 (0-10) | 0 (0-10) | 27 | 38 | 77 | 46 | 95
CCOC(=O)c1ccc(Oc2nsnc(Cl)c2=O)cc1 [Compound 7, 3-chloro-5-(4-ethoxycarbonylphenoxy)-4H--1,2,6-thiadiazin-4-one] | 0 (0-10) | 0 (0-10) | 0 (0-10) | 0 (0-10) | 9 | 36 | 100 | 100 | 100
CC(=O)Nc1ccccc1Oc1nsnc(Cl)c1=O [Compound 43, 3-[(2-acetylamino)-phenoxy]-5-chloro-4H--1,2,6-thiadiazin-4-one] | 4 (80-100) | 4 (80-100) | 4 (80-100) | 2 (40-60) | 0 | 0 | 17 | 6 | 0
O=c1c(Cl)nsnc1Oc1c(Cl)cccc1Cl [Compound 18, 3-chloro-5-(2,6-dichlorophenoxy)-4H--1,2,6-thiadiazin-4-one] | 3 (60-80) | 0 (0-10) | 0 (0-10) | 0 (0-10) | 83 | 100 | 100 | 100 | 50
Cc1ccc(Oc2nsnc(Cl)c2=O)c(C)c1 [Compound 23, 3-chloro-5-(2,4-dimethylphenoxy)-4H--1,2,6-thiadiazin-4-one] | 4 (80-100) | 2 (40-60) | 2 (40-60) | 0 (0-10) | 27 | 38 | 100 | 81 | 0
CC(C)(C)c1ccc(Oc2nsnc(Cl)c2=O)cc1 [Compound 4, 3-chloro-5-(4-tert-butylphnoxy)-4H--1,2,6-thiadiazin-4-one] | 4 (80-100) | 3 (60-80) | 0 (0-10) | 0 (0-10) | 0 | 9 | 45 | 27 | 0
N#Cc1ccc(Oc2nsnc(Cl)c2=O)cc1 [Compound 10, 3-chloro-5-(4-cyanophenoxy)-4H--1,2,6-thiadiazin-4-one] | 0 (0-10) | 0 (0-10) | 0 (0-10) | 1 (10-40) | 9 | 45 | 100 | 100 | 100
O=c1c(Cl)nsnc1Oc1ccc(Cl)c(Cl)c1 [Compound 16, 3-chloro-5-(3,4-dichlorophenoxy)-4H--1,2,6-thiadiazin-4-one] | 1 (10-40) | 0 (0-10) | 0 (0-10) | 0 (0-10) | 58 | 54 | 75 | 67 | 0
Cc1cc(Oc2nsnc(Cl)c2=O)cc(C)c1Cl [Compound 59, 3-chloro-5-[(4-chloro-3,5-dimethyl)phenoxy]-4H--1,2,6-thiadiazin-4-one] | 4 (80-100) | 1 (10-40) | 1 (10-40) | 0 (0-10) | 28 | 42 | 61 | 47 | 0
CC(=O)Nc1ccc(Oc2nsnc(Cl)c2=O)cc1 [Compound 8, 5-(4-acetylaminophenoxy)-3-chloro-4H--1,2,6-thiadiazin-4-one] | 4 (80-100) | 4 (80-100) | 0 (0-10) | 0 (0-10) | 50 | 58 | 100 | 67 | 90
CCCCOc1ccc(Oc2nsnc(Cl)c2=O)cc1 [Compound 6, 3-chloro-5-(4-n-butoxyphenoxy)-4H--1,2,6-thiadiazin-4-one] | 2 (40-60) | 0 (0-10) | 0 (0-10) | 0 (0-10) | 0 | 0 | 45 | 0 | 0
CNC(=O)Nc1ccc(Oc2nsnc(Cl)c2=O)cc1 [Compound 28, 3-chloro-5-[4-(3-methylureido)-phenoxy]-4H--1,2,6-thiadiazin-4-one] | 4 (80-100) | 4 (80-100) | 4 (80-100) | 2 (40-60) | 14 | 26 | 60 | 26 | 90
O=c1c(Cl)nsnc1Oc1ccc(Cl)cc1Cl [Compound 17, 3-chloro-5-(2,4-dichlorophenoxy)-4H--1,2,6-thiadiazin-4-one] | 3 (60-80) | 0 (0-10) | 0 (0-10) | 0 (0-10) | 100 | 100 | 100 | 100 | 100
O=c1c(Cl)nsnc1Oc1c(Cl)cc(Cl)cc1Cl [Compound 30, 3-chloro-5-(2,4,6-trichlorophenoxy)-4H--1,2,6-thiadiazin-4-one] | 4 (80-100) | 1 (10-40) | 0 (0-10) | 0 (0-10) | 75 | 100 | 100 | 100 | 0
CS(=O)(=O)c1ccc(Oc2nsnc(Cl)c2=O)cc1 [Compound 41, 3-chloro-5-[(4-methylsulfonyl)phenoxy]-4H--1,2,6-thiadiazin-4-one] | 4 (80-100) | 2 (40-60) | 0 (0-10) | 0 (0-10) | 10 | 32 | 65 | 48 | 90
COc1ccc(Oc2nsnc(Cl)c2=O)cc1 [Compound 5, 3-chloro-5-(4-methoxyphenoxy)4H--1,2,6-thiadiazin-4-one] | 2 (40-60) | 2 (40-60) | 2 (40-60) | 0 (0-10) | 50 | 75 | 100 | 100 | 0
Cc1ccc(Cl)c(Oc2nsnc(Cl)c2=O)c1 [Compound 56, 3-chloro-5-[(2-chloro-5-methyl)phenoxy]-4H--1,2,6-thiadiazin-4-one] | 4 (80-100) | 0 (0-10) | 0 (0-10) | 0 (0-10) | 26 | 38 | 100 | 100 | 95
N#CCc1ccc(Oc2nsnc(Cl)c2=O)cc1 [Compound 46, 3-chloro-5-[(4-cyanomethyl)-phenoxy]4H--1,2,6-thiadiazin-4-one] | 4 (80-100) | 1 (10-40) | 1 (10-40) | 0 (0-10) | 0 | 0 | 100 | 46 | 75
O=C(Nc1ccccc1)Oc1ccc(Oc2nsnc(Cl)c2=O)cc1 [Compound 37, 3-chloro-5-[4-(phenylaminocarbonyloxy)phenoxy]-4H-1,2,6,-thiadiazin-4-one] | 4 (80-100) | 4 (80-100) | 4 (80-100) | 4 (80-100) | 23 | 29 | 52 | 35 | 0
O=C(Nc1ccccc1)Nc1ccc(Oc2nsnc(Cl)c2=O)cc1 [Compound 29, 3-chloro-5-[4-(3-phenylureido)-phenoxy]-4H--1,2,6-thiadiazin-4-one] | 4 (80-100) | 4 (80-100) | 4 (80-100) | 3 (60-80) | 14 | 11 | 31 | 14 | 100
Cc1cccc(C)c1Oc1nsnc(Cl)c1=O [Compound 24, 3-chloro-5-(2,6-dimethylphenoxy)-4H--1,2,6-thiadiazin-4-one] | 4 (80-100) | 2 (40-60) | 1 (10-40) | 0 (0-10) | 46 | 65 | 100 | 100 | 98
O=C(O)c1ccc(Oc2nsnc(Cl)c2=O)cc1 [Compound 50, 3-(4-carboxyphenoxy)-5-chloro-4H--1,2,6-thiadiazin-4-one] | 4 (80-100) | 2 (40-60) | 0 (0-10) | 0 (0-10) | 58 | 54 | 100 | 73 | 0
COc1ccc(Cl)c(Oc2nsnc(Cl)c2=O)c1 [Compound 51, 3-chloro-5-[(2-chloro-5-methoxy)phenoxy]-4H--1,2,6-thiadiazin-4-one] | 4 (80-100) | 3 (60-80) | 1 (10-40) | 0 (0-10) | 8 | 26 | 100 | 85 | 90
